Data taken from patent US6399629B1, “Efflux pump inhibitors” (priority 1998, dated 2002).
Where a name gives a salt, the structure may show the parent alone.

System: Pseudomonas aeruginosa PAM1001
Experiment: microbe, parasite or virus in culture
Format: cell-based
Conditions: for inhibition at 2.5 µg/mL / inhibition at 5 µg/mL / inhibition at 10 µg/mL / inhibition at 20 µg/mL / inhibition at 40 µg/mL: Pseudomonas aeruginosa, PAM1001, read-out: Inhibition (%) of growth of P. aeruginosa PAM1001; for Inhibition (%) of growth of P. aeruginosa PAM1001: Levofloxacin 0.25 μg/mL
Procedure: For compounds labeled with the prefix ‘D’, potentiation is measured by inhibition of growth of Pseudomonas aeruginosa PAM1001 at varying concentrations of efflux pump inhibitors (EPIs) in the presence of levofloxacin (0.25 microg/mL). Bacteria are grown in Mueller Hinton Broth (MHB, Difco) with an initial inoculum of 1×10^6 CFU/mL. Kinetics of bacterial growth is monitored, during 18 h of incubation at 37° C., by measurement of the culture absorbance at 650 nm using a 96-well plate spectrophotometer (SpectraMax, Molecular Devices). The inhibitory effect of EPIs is expressed as a percentage of growth inhibition compared to a control bacterial culture grown in the presence of 0.25 microg/mL levofloxacin but without EPIs.

[1] = Concentration of Compound 2.5 μg/mL
[2] = Concentration of Compound 5 μg/mL
[3] = Concentration of Compound 10 μg/mL
[4] = Concentration of Compound 20 μg/mL
[5] = Concentration of Compound 40 μg/mL

Molecule: NCC(=O)N[C@H]1CN[C@H](C(=O)Nc2ccc(SCc3ccccc3)cc2)C1 [Compound D320, trans-4-Glycylamino-L-Proline 4-Benzylthiophenyl-amide Dihydrochloride]
- inhibition at 2.5 µg/mL: 23%
- inhibition at 5 µg/mL: 21%
- inhibition at 10 µg/mL: 97%
- inhibition at 20 µg/mL: 100%
- inhibition at 40 µg/mL: 100%

Molecule: NC[C@H](O)C(=O)N[C@H]1CN[C@H](C(=O)Nc2ccc(Oc3ccccc3)cc2)C1 [Compound D321, trans-4-((S)-3-Amino-2-Hydroxypropionylamino)-L-Proline 4-Phenoxyphenylamide Dihydrochloride]
- inhibition at 2.5 µg/mL: 15%
- inhibition at 5 µg/mL: 14%
- inhibition at 10 µg/mL: 84%
- inhibition at 20 µg/mL: 100%
- inhibition at 40 µg/mL: 100%

Molecule: NCCS(=O)(=O)N[C@H]1CN[C@H](C(=O)Nc2ccc(Oc3ccccc3)cc2)C1 [Compound D322, trans-4-(2-Aminoethylsulfonylamino)-L-Proline 4-Phenoxyphenylamide Dihydrochloride]
- inhibition at 2.5 µg/mL: 19%
- inhibition at 5 µg/mL: 19%
- inhibition at 10 µg/mL: 17%
- inhibition at 20 µg/mL: 99%
- inhibition at 40 µg/mL: 100%

Molecule: N[C@H]1CCN[C@H](C(=O)Nc2ccc(Oc3ccccc3)cc2)C1 [Compound D329, trans-4-Amino-L-Pipecolinoyl-(4-Phenoxyphenyl)-amide Dihydrochloride]
- inhibition at 2.5 µg/mL: 20%
- inhibition at 5 µg/mL: 20%
- inhibition at 10 µg/mL: 17%
- inhibition at 20 µg/mL: 16%
- inhibition at 40 µg/mL: 97%

Molecule: NCC(=O)N[C@H]1CCN[C@H](C(=O)Nc2ccc(Oc3ccccc3)cc2)C1 [Compound D330, trans-4-Glycylamino-L-Pipecolinoyl 4-Phenoxy-phenylamide Dihydrochloride]
- inhibition at 2.5 µg/mL: 19%
- inhibition at 5 µg/mL: 18%
- inhibition at 10 µg/mL: 12%
- inhibition at 20 µg/mL: 100%
- inhibition at 40 µg/mL: 100%

Molecule: NC[C@H]1CN[C@H](C(=O)Nc2ccc(Oc3ccccc3)cc2)C1 [Compound D331, trans-4-Aminomethyl-L-Proline 4-Phenoxyphenyl-amide Dihydrochloride]
- inhibition at 2.5 µg/mL: 17%
- inhibition at 5 µg/mL: 9%
- inhibition at 10 µg/mL: -10%
- inhibition at 20 µg/mL: 100%
- inhibition at 40 µg/mL: 100%

Molecule: NCC(=O)N[C@H]1CN[C@H](C(=O)N2CCN(c3cccc(Cl)c3)CC2)C1 [Compound D401, 1-(trans-4-Glycylamino-L-Prolyl)-4-(3-Chlorophenyl)-piperazine Dihydrochloride]
- inhibition at 2.5 µg/mL: 21%
- inhibition at 5 µg/mL: 19%
- inhibition at 10 µg/mL: 15%
- inhibition at 20 µg/mL: 4%
- inhibition at 40 µg/mL: 96%

Molecule: Cc1c(Cl)cccc1N1CCN(C(=O)[C@H]2C[C@H](NC(=O)[C@@H](O)CN)CN2)CC1 [Compound D402, 1-[trans-4-((2S)-3-Amino-2-Hydroxypropionylamino)-D-Prolyl]-4-(3-Chloro-2-Methylphenyl)piperazine Dihydrochloride]
- inhibition at 2.5 µg/mL: 19%
- inhibition at 5 µg/mL: 71%
- inhibition at 10 µg/mL: 99%
- inhibition at 20 µg/mL: 100%
- inhibition at 40 µg/mL: 101%

Molecule: NCC(=O)N[C@H]1CN[C@H](C(=O)N2CCN(c3ccccc3Cl)CC2)C1 [Compound D405, 1-(trans-4-Glycylamino-L-Prolyl)-4-(2-Chlorophenyl)-piperazine Dihydrochloride]
- inhibition at 2.5 µg/mL: 20%
- inhibition at 5 µg/mL: 19%
- inhibition at 10 µg/mL: 16%
- inhibition at 20 µg/mL: -11%
- inhibition at 40 µg/mL: 58%

Molecule: Cc1c(Cl)cccc1N1CCN(C(=O)[C@@H]2C[C@@H](CN)CN2)CC1 [Compound D407, 1-(trans-4-Aminomethyl-L-Prolyl)-4-(3-Chloro-2-methylphenyl)piperazine Dihydrochloride]
- inhibition at 2.5 µg/mL: 100%
- inhibition at 5 µg/mL: 100%
- inhibition at 10 µg/mL: 99%
- inhibition at 20 µg/mL: 99%
- inhibition at 40 µg/mL: 98%

Molecule: NCC(=O)N[C@@H]1CN[C@@H](C(=O)N2CCN(Cc3ccccc3)C[C@H]2CCc2ccccc2)C1 [Compound D409, (2R)-4-Benzyl-1-(trans-4-Glycylamino-D-Prolyl)-2-Phenethylpiperazine Trihydrochloride]
- inhibition at 2.5 µg/mL: 22%
- inhibition at 5 µg/mL: 16%
- inhibition at 10 µg/mL: 99%
- inhibition at 20 µg/mL: 100%
- inhibition at 40 µg/mL: 100%

Molecule: NCC(=O)N[C@H]1CN[C@H](C(=O)N2CCC(Oc3ccc(OCc4ccccc4)cc3)CC2)C1 [Compound D413, 1-(trans-4-Glycylamino-L-Prolyl)4-(4-Benzyloxyphenoxy)piperidine Dihydrochloride]
- inhibition at 2.5 µg/mL: 13%
- inhibition at 5 µg/mL: 8%
- inhibition at 10 µg/mL: 97%
- inhibition at 20 µg/mL: 100%
- inhibition at 40 µg/mL: 100%

Molecule: NCC(=O)N[C@H]1CN[C@H](C(=O)N2CCC(Oc3cc(Cl)cc(Cl)c3)CC2)C1 [Compound D414, 1-(trans-4-Glycylamino-L-Prolyl)-4-(3,5-dichlorophenoxy)piperidine Dihydrochloride]
- inhibition at 2.5 µg/mL: 19%
- inhibition at 5 µg/mL: 98%
- inhibition at 10 µg/mL: 100%
- inhibition at 20 µg/mL: 100%
- inhibition at 40 µg/mL: 100%

Molecule: Cl.Cl.NCC(=O)N[C@@H]1CN[C@@H](C(=O)N2CCC(Oc3cc(Cl)cc(Cl)c3)CC2)C1 [Compound D415]
- Inhibition (%) of growth of P. aeruginosa PAM1001 [1]: 13%
- Inhibition (%) of growth of P. aeruginosa PAM1001 [2]: 99%
- Inhibition (%) of growth of P. aeruginosa PAM1001 [3]: 100%
- Inhibition (%) of growth of P. aeruginosa PAM1001 [4]: 100%
- Inhibition (%) of growth of P. aeruginosa PAM1001 [5]: 100%

Molecule: Cl.Cl.NCC(=O)N[C@H]1CN[C@H](COc2ccc(-c3ccccc3)cc2)C1 [Compound D501, (2S,4R)-4-Glycylamino-2-(4-Biphenyloxy)-methylpyrrolidine Dihydrochloride]
- Inhibition (%) of growth of P. aeruginosa PAM1001 [1]: 1%
- Inhibition (%) of growth of P. aeruginosa PAM1001 [2]: 98%
- Inhibition (%) of growth of P. aeruginosa PAM1001 [3]: 100%
- Inhibition (%) of growth of P. aeruginosa PAM1001 [4]: 100%
- Inhibition (%) of growth of P. aeruginosa PAM1001 [5]: 98%

Molecule: NCC(=O)N[C@H]1CN[C@H](COc2cccc(-c3ccccc3)c2)C1 [Compound D502, (2S,4R)-4-Glycylamino-2-(3-Biphenyloxy)methyl-pyrrolidine Dihydrochloride]
- inhibition at 2.5 µg/mL: 13%
- inhibition at 5 µg/mL: 88%
- inhibition at 10 µg/mL: 99%
- inhibition at 20 µg/mL: 100%
- inhibition at 40 µg/mL: 100%

Molecule: NCC(=O)N[C@@H]1CN[C@@H](COc2ccc(-c3ccccc3)cc2)C1 [Compound D503, (2R,4S)-4-Glycylamino-2-(4-Biphenyloxy)methyl-pyrrolidine Dihydrochloride]
- inhibition at 2.5 µg/mL: 22%
- inhibition at 5 µg/mL: 15%
- inhibition at 10 µg/mL: 100%
- inhibition at 20 µg/mL: 100%
- inhibition at 40 µg/mL: 100%

Molecule: NCC(=O)N[C@@H]1CN[C@@H](COc2cccc(-c3ccccc3)c2)C1 [Compound D504, (2R,4S)-4-Glycylamino-2-(3-Biphenyloxy)methyl-pyrrolidine Dihydrochloride]
- inhibition at 2.5 µg/mL: 22%
- inhibition at 5 µg/mL: 3%
- inhibition at 10 µg/mL: 74%
- inhibition at 20 µg/mL: 100%
- inhibition at 40 µg/mL: 99%

Molecule: NCCNC(=O)[C@@H]1C[C@@H](Oc2cccc(-c3ccccc3)c2)CN1 [Compound D601, trans-4-(3-Biphenyloxy)-L-Proline 2-Aminoethylamide Dihydrochloride]
- inhibition at 2.5 µg/mL: 20%
- inhibition at 5 µg/mL: 18%
- inhibition at 10 µg/mL: 16%
- inhibition at 20 µg/mL: 86%
- inhibition at 40 µg/mL: 100%

Molecule: NCC(O)[C@@H]1C[C@@H](Oc2cccc(-c3ccccc3)c2)CN1 (stereo partly drawn) [Compound D602, (2S,4R)-2-(2-Amino-1-hydroxyethyl)-4-(3-biphenyloxy)pyrrolidine Dihydrochloride]
- inhibition at 2.5 µg/mL: 98%
- inhibition at 5 µg/mL: 99%
- inhibition at 10 µg/mL: 100%
- inhibition at 20 µg/mL: 100%
- inhibition at 40 µg/mL: 100%

Molecule: Cl.Cl.NCC(=O)NC1CNC(C(=O)Nc2cccc(NC(=O)CCc3ccccc3)c2)C1 [Compound D701, 1-(N-trans-4-Glycylamino-L-Prolylamino)-3-(4-Phenylpropanoylamino)benzene Dihydrochloride]
- Inhibition (%) of growth of P. aeruginosa PAM1001 [1]: 17%
- Inhibition (%) of growth of P. aeruginosa PAM1001 [2]: 10%
- Inhibition (%) of growth of P. aeruginosa PAM1001 [3]: 96%
- Inhibition (%) of growth of P. aeruginosa PAM1001 [4]: 100%
- Inhibition (%) of growth of P. aeruginosa PAM1001 [5]: 100%

Molecule: Cl.Cl.Cl.NCC(=O)NC1CNC(C(=O)Nc2cccc(NC(=O)CCc3ccccc3)n2)C1 [Compound D702, 2-(trans-4-Glycylamino-L-Prolylamino)-6-(4-Phenylpropanoylamino)Pyridine Trihydrochloride]
- Inhibition (%) of growth of P. aeruginosa PAM1001 [1]: 19%
- Inhibition (%) of growth of P. aeruginosa PAM1001 [2]: 15%
- Inhibition (%) of growth of P. aeruginosa PAM1001 [3]: 82%
- Inhibition (%) of growth of P. aeruginosa PAM1001 [4]: 100%
- Inhibition (%) of growth of P. aeruginosa PAM1001 [5]: 100%

Molecule: Cl.Cl.NCC(=O)N[C@H]1CN[C@H](C=Cc2ccc(-c3ccccc3)cc2)C1 [Compound D801, (2S,4R)-4-Glycylamino-2-((E and Z)-4-Phenyistyryl)-pyrrolidine Dihydrochloride]
- Inhibition (%) of growth of P. aeruginosa PAM1001 [1]: 8%
- Inhibition (%) of growth of P. aeruginosa PAM1001 [2]: 63%
- Inhibition (%) of growth of P. aeruginosa PAM1001 [3]: 99%
- Inhibition (%) of growth of P. aeruginosa PAM1001 [4]: 99%
- Inhibition (%) of growth of P. aeruginosa PAM1001 [5]: 99%

Molecule: trans-4-Glycylamino-D-proline 3-Biphenylamide Dihydrochloride [Compound D307]
- Inhibition (%) of growth of P. aeruginosa PAM1001 [1]: 24%
- Inhibition (%) of growth of P. aeruginosa PAM1001 [2]: 5%
- Inhibition (%) of growth of P. aeruginosa PAM1001 [3]: 90%
- Inhibition (%) of growth of P. aeruginosa PAM1001 [4]: 100%
- Inhibition (%) of growth of P. aeruginosa PAM1001 [5]: 100%
